# From article PMC5218480 (PLoS ONE, 2017)
# System: MV-4-11 cells
# Experiment: Gene expression microarray analysis (Affymetrix PrimeView) and GSEA
# Assay type: cell-based, human
# Parameters: RFU PODN (11730768_x_at) / Fold change /veh PODN (11730768_x_at) / RFU LINC00158 (11744669_a_at) / Fold change /veh LINC00158 (11744669_a_at) / RFU DUSP10 (11751237_a_at) / Fold change /veh DUSP10 (11751237_a_at) / RFU ID3 (11757404_x_at) / Fold change /veh ID3 (11757404_x_at) / RFU PLEKHG5 (11737974_s_at) / Fold change /veh PLEKHG5 (11737974_s_at) / RFU LRRC4B (11730491_at) / Fold change /veh LRRC4B (11730491_at) / RFU GIMAP4 (11747438_a_at) / Fold change /veh GIMAP4 (11747438_a_at) / RFU KRT8 (11758183_x_at) / Fold change /veh KRT8 (11758183_x_at) / RFU CNN1 (11734310_a_at) / Fold change /veh CNN1 (11734310_a_at) / RFU VPS37D (11726825_at) / Fold change /veh VPS37D (11726825_at) / RFU C10orf10 (11716522_x_at) / Fold change /veh C10orf10 (11716522_x_at) / RFU KIR2DL2 /// KIR2DL4 /// KIR2DL5A /// KIR2DL5B /// KIR2DS1 /// KIR2DS2 /// KIR2DS3 /// KIR2DS4 /// KIR3DL3 /// KIR3DL3 /// KIR3DS1 (11738374_at) / Fold change /veh KIR2DL2 /// KIR2DL4 /// KIR2DL5A /// KIR2DL5B /// KIR2DS1 /// KIR2DS2 /// KIR2DS3 /// KIR2DS4 /// KIR3DL3 /// KIR3DL3 /// KIR3DS1 (11738374_at) / RFU C1QL1 (11718748_at) / Fold change /veh C1QL1 (11718748_at) / RFU TMPRSS4 (11747572_a_at) / Fold change /veh TMPRSS4 (11747572_a_at) / RFU HAMP (11756126_x_at) / Fold change /veh HAMP (11756126_x_at) / RFU RNFT2 (11725882_a_at) / Fold change /veh RNFT2 (11725882_a_at) / RFU NR4A2 (11747474_a_at) / Fold change /veh NR4A2 (11747474_a_at) / RFU ABCC12 (11746883_a_at) / Fold change /veh ABCC12 (11746883_a_at) / RFU TMEM136 (11760407_x_at) / Fold change /veh TMEM136 (11760407_x_at) / RFU CLDN22 /// WWC2 (11732394_at) / Fold change /veh CLDN22 /// WWC2 (11732394_at) / RFU HLA-DPB1 (11760878_x_at) / Fold change /veh HLA-DPB1 (11760878_x_at) / RFU SPINT1 (11716480_a_at) / Fold change /veh SPINT1 (11716480_a_at) / RFU GAP43 (11754022_s_at) / Fold change /veh GAP43 (11754022_s_at) / RFU A4GNT (11735810_at) / Fold change /veh A4GNT (11735810_at) / RFU PRB3 (11715151_x_at) / Fold change /veh PRB3 (11715151_x_at) / RFU TUBB4B (11761932_at) / Fold change /veh TUBB4B (11761932_at) / RFU CAPN14 (11732068_a_at) / Fold change /veh CAPN14 (11732068_a_at) / RFU TMCC2 (11721928_a_at) / Fold change /veh TMCC2 (11721928_a_at) / RFU IRGQ (11745062_a_at) / Fold change /veh IRGQ (11745062_a_at) / RFU FAM174B (11720279_a_at) / Fold change /veh FAM174B (11720279_a_at) / RFU TMPRSS4 (11748680_a_at) / Fold change /veh TMPRSS4 (11748680_a_at) / RFU FAM212B (11763350_a_at) / Fold change /veh FAM212B (11763350_a_at) / RFU PLEKHG5 (11743358_a_at) / Fold change /veh PLEKHG5 (11743358_a_at) / RFU ZSCAN30 (11745921_a_at) / Fold change /veh ZSCAN30 (11745921_a_at) / RFU CMKLR1 (11741424_a_at) / Fold change /veh CMKLR1 (11741424_a_at) / RFU LOC101060620 /// MAPK8IP1 (11723275_at) / Fold change /veh LOC101060620 /// MAPK8IP1 (11723275_at) / RFU SPTSSB (11747773_x_at) / Fold change /veh SPTSSB (11747773_x_at) / RFU PRSS12 (11739890_at) / Fold change /veh PRSS12 (11739890_at) / RFU BIN1 (11741810_x_at) / Fold change /veh BIN1 (11741810_x_at) / RFU WNT11 (11732464_a_at) / Fold change /veh WNT11 (11732464_a_at) / RFU C10orf10 (11716521_a_at) / Fold change /veh C10orf10 (11716521_a_at) / RFU C5orf56 (11738089_at) / Fold change /veh C5orf56 (11738089_at) / RFU CYB561 (11721691_x_at) / Fold change /veh CYB561 (11721691_x_at) / RFU ANKRD19P (11752326_a_at) / Fold change /veh ANKRD19P (11752326_a_at) / RFU OR2T12 /// OR2T33 /// OR2T8 (11738714_s_at) / Fold change /veh OR2T12 /// OR2T33 /// OR2T8 (11738714_s_at) / RFU VCAN (11748164_a_at) / Fold change /veh VCAN (11748164_a_at) / RFU JSRP1 (11732532_at) / Fold change /veh JSRP1 (11732532_at) / RFU KRTAP10-11 (11738290_x_at) / Fold change /veh KRTAP10-11 (11738290_x_at) / RFU MYO3A (11730013_a_at) / Fold change /veh MYO3A (11730013_a_at) / RFU EBF3 (11725865_a_at) / Fold change /veh EBF3 (11725865_a_at) / RFU CAMK2N1 (11719241_x_at) / Fold change /veh CAMK2N1 (11719241_x_at) / RFU C5orf56 (11738088_a_at) / Fold change /veh C5orf56 (11738088_a_at) / RFU OLFML3 (11715873_a_at) / Fold change /veh OLFML3 (11715873_a_at) / RFU LOC100653217 /// NTM (11731650_a_at) / Fold change /veh LOC100653217 /// NTM (11731650_a_at) / RFU MAPK11 (11762145_a_at) / Fold change /veh MAPK11 (11762145_a_at) / RFU FIZ1 (11724087_x_at) / Fold change /veh FIZ1 (11724087_x_at) / RFU OASL (11726364_x_at) / Fold change /veh OASL (11726364_x_at) / RFU SOX15 (11748057_x_at) / Fold change /veh SOX15 (11748057_x_at) / RFU CD79A (11719716_a_at) / Fold change /veh CD79A (11719716_a_at) / RFU HIST1H1D (11736915_at) / Fold change /veh HIST1H1D (11736915_at) / RFU CASKIN2 (11723855_a_at) / Fold change /veh CASKIN2 (11723855_a_at) / RFU LOC730098 (11760151_x_at) / Fold change /veh LOC730098 (11760151_x_at) / RFU OR4N2 (11742367_at) / Fold change /veh OR4N2 (11742367_at) / RFU PRRT2 (11749266_a_at) / Fold change /veh PRRT2 (11749266_a_at) / RFU SNX32 (11753110_a_at) / Fold change /veh SNX32 (11753110_a_at) / RFU CDHR5 (11726645_a_at) / Fold change /veh CDHR5 (11726645_a_at) / RFU RCAN1 (11760418_a_at) / Fold change /veh RCAN1 (11760418_a_at) / RFU FAM167A (11723789_a_at) / Fold change /veh FAM167A (11723789_a_at) / RFU FAM26E (11764081_at) / Fold change /veh FAM26E (11764081_at) / RFU ISYNA1 (11749810_s_at) / Fold change /veh ISYNA1 (11749810_s_at) / RFU ACY1 (11761880_at) / Fold change /veh ACY1 (11761880_at) / RFU 11764098_at / Fold change /veh 11764098_at / RFU SAMD14 (11745864_x_at) / Fold change /veh SAMD14 (11745864_x_at) / RFU NPB (11741838_a_at) / Fold change /veh NPB (11741838_a_at) / RFU TMPRSS6 (11731388_a_at) / Fold change /veh TMPRSS6 (11731388_a_at) / RFU KRTAP10-2 (11738614_at) / Fold change /veh KRTAP10-2 (11738614_at) / RFU ARHGAP8 /// PRR5-ARHGAP8 (11727945_x_at) / Fold change /veh ARHGAP8 /// PRR5-ARHGAP8 (11727945_x_at) / RFU KRTAP5-7 /// NADSYN1 (11734609_at) / Fold change /veh KRTAP5-7 /// NADSYN1 (11734609_at) / RFU RASL12 (11751679_a_at) / Fold change /veh RASL12 (11751679_a_at) / RFU CDKN2B (11736163_a_at) / Fold change /veh CDKN2B (11736163_a_at) / RFU PRF1 (11729649_at) / Fold change /veh PRF1 (11729649_at) / RFU, ZNF638 /// ZNF638-IT1 / Fold change vs veh, ZNF638 /// ZNF638-IT1 / RFU, PANK3 / Fold change vs veh, PANK3 / RFU, SH3YL1 / Fold change vs veh, SH3YL1 / RFU, ZEB2 / Fold change vs veh, ZEB2 / RFU, NRIP1 / Fold change vs veh, NRIP1 / RFU, PTTG1IP / Fold change vs veh, PTTG1IP / RFU, CAPN2 / Fold change vs veh, CAPN2 / RFU, MED14 / Fold change vs veh, MED14 / RFU, SNORA58 / Fold change vs veh, SNORA58 / RFU, C1orf63 / Fold change vs veh, C1orf63 / RFU, LRRFIP1 / Fold change vs veh, LRRFIP1 / RFU, NDUFAF7 / Fold change vs veh, NDUFAF7 / RFU, SLC12A2 / Fold change vs veh, SLC12A2 / RFU, IBTK / Fold change vs veh, IBTK / RFU, ESF1 / Fold change vs veh, ESF1 / Fold change vs veh, TMEM50B / RFU, TAOK1 / Fold change vs veh, TAOK1 / RFU, ACBD3 / Fold change vs veh, ACBD3 / RFU, TMA16 / Fold change vs veh, TMA16 / RFU, RWDD3 / Fold change vs veh, RWDD3 / RFU, BCAT1 / Fold change vs veh, BCAT1 / RFU, EDEM3 / Fold change vs veh, EDEM3 / RFU, TMEM33 / Fold change vs veh, TMEM33 / RFU, WDR75 / Fold change vs veh, WDR75 / RFU, AHCTF1 / Fold change vs veh, AHCTF1 / RFU, TFRC / Fold change vs veh, TFRC / RFU, ZDHHC17 / Fold change vs veh, ZDHHC17 / RFU, NOM1 / Fold change vs veh, NOM1 / RFU, ARL8B / Fold change vs veh, ARL8B / RFU, ZBTB11 / Fold change vs veh, ZBTB11 / RFU, TAMM41 / Fold change vs veh, TAMM41 / RFU, KIAA1704 /// LOC100996395 / Fold change vs veh, KIAA1704 /// LOC100996395 / RFU, ING1 / Fold change vs veh, ING1 / RFU, TRMT61B / Fold change vs veh, TRMT61B / RFU, FUBP3 / Fold change vs veh, FUBP3 / RFU, TP53 / Fold change vs veh, TP53 / RFU, TNKS2 / Fold change vs veh, TNKS2 / RFU, ZFP14 / Fold change vs veh, ZFP14 / RFU, ACTR2 / Fold change vs veh, ACTR2 / RFU, PPP3R1 / Fold change vs veh, PPP3R1 / RFU, PIK3R1 / Fold change vs veh, PIK3R1 / RFU, HNRNPA1 / Fold change vs veh, HNRNPA1 / RFU, RNF170 / Fold change vs veh, RNF170 / RFU, ZNF28 / Fold change vs veh, ZNF28 / RFU, RNGTT / Fold change vs veh, RNGTT / RFU, OGT / Fold change vs veh, OGT / RFU, BRD1 / Fold change vs veh, BRD1 / RFU, MARS / Fold change vs veh, MARS / RFU, ZNF655 / Fold change vs veh, ZNF655 / RFU, FAHD1 / Fold change vs veh, FAHD1 / RFU, BDP1 / Fold change vs veh, BDP1 / RFU, LRRCC1 / Fold change vs veh, LRRCC1 / RFU, ARID1A / Fold change vs veh, ARID1A / RFU, ZNF146 / Fold change vs veh, ZNF146 / RFU, ZNF330 / Fold change vs veh, ZNF330 / RFU, GPN3 / Fold change vs veh, GPN3 / RFU, C9orf123 / Fold change vs veh, C9orf123 / RFU, N4BP2L2 / Fold change vs veh, N4BP2L2 / RFU, ARFIP1 / Fold change vs veh, ARFIP1 / RFU, FAM179B / Fold change vs veh, FAM179B / RFU, BCL10 / Fold change vs veh, BCL10 / RFU, UHRF1BP1L / Fold change vs veh, UHRF1BP1L / RFU, BET1 / Fold change vs veh, BET1 / RFU, CNOT2 / Fold change vs veh, CNOT2 / RFU, ZNF268 / Fold change vs veh, ZNF268 / Fold change vs veh, ZNF507 / RFU, DGCR2 / Fold change vs veh, DGCR2 / RFU, WDSUB1 / Fold change vs veh, WDSUB1 / Fold change vs veh, HSP90B1 /// MIR3652 / RFU, ADSS / Fold change vs veh, ADSS / RFU, GK / Fold change vs veh, GK / RFU, ZNF148 / Fold change vs veh, ZNF148 / RFU, TAF9 / Fold change vs veh, TAF9 / RFU, SLC1A5 / Fold change vs veh, SLC1A5 / RFU, SLMO2 / Fold change vs veh, SLMO2 / RFU, ABCC4 / Fold change vs veh, ABCC4 / RFU, LOC101060439 /// RAP1B / Fold change vs veh, LOC101060439 /// RAP1B / RFU, RFX7 / Fold change vs veh, RFX7 / RFU, GTPBP10 / Fold change vs veh, GTPBP10 / RFU, CNEP1R1 / Fold change vs veh, CNEP1R1 / RFU, BIVM-ERCC5 /// ERCC5 / Fold change vs veh, BIVM-ERCC5 /// ERCC5 / RFU, ILF3 / Fold change vs veh, ILF3 / RFU 11762660_at / Fold change /veh 11762660_at / RFU VCAN (11757783_s_at) / Fold change /veh VCAN (11757783_s_at) / RFU DDX43 (11728927_at) / Fold change /veh DDX43 (11728927_at) / RFU KRT8 (11758188_x_at) / Fold change /veh KRT8 (11758188_x_at) / RFU NKD1 (11759106_at) / Fold change /veh NKD1 (11759106_at) / RFU SRD5A1 (11742802_a_at) / Fold change /veh SRD5A1 (11742802_a_at) / RFU TPSAB1 /// TPSB2 (11721975_s_at) / Fold change /veh TPSAB1 /// TPSB2 (11721975_s_at) / RFU GSTM3 (11746129_a_at) / Fold change /veh GSTM3 (11746129_a_at) / RFU IL23R (11737362_x_at) / Fold change /veh IL23R (11737362_x_at) / RFU TMEM51 (11727254_a_at) / Fold change /veh TMEM51 (11727254_a_at) / RFU PIWIL2 (11732686_x_at) / Fold change /veh PIWIL2 (11732686_x_at) / RFU ORM1 (11744905_x_at) / Fold change /veh ORM1 (11744905_x_at) / RFU CCDC152 (11743942_at) / Fold change /veh CCDC152 (11743942_at) / RFU ECM1 (11717891_a_at) / Fold change /veh ECM1 (11717891_a_at) / RFU IL23R (11748794_a_at) / Fold change /veh IL23R (11748794_a_at) / RFU TNFAIP8L3 (11732012_x_at) / Fold change /veh TNFAIP8L3 (11732012_x_at) / RFU MBOAT4 (11741988_at) / Fold change /veh MBOAT4 (11741988_at) / RFU 11764193_at / Fold change /veh 11764193_at / RFU TMEM53 (11763286_at) / Fold change /veh TMEM53 (11763286_at) / RFU MAGEB2 (11727129_at) / Fold change /veh MAGEB2 (11727129_at) / RFU TMEM200A (11744735_a_at) / Fold change /veh TMEM200A (11744735_a_at) / RFU CCDC152 (11751479_a_at) / Fold change /veh CCDC152 (11751479_a_at) / RFU FAM211A (11726209_a_at) / Fold change /veh FAM211A (11726209_a_at) / RFU RGS16 (11746705_a_at) / Fold change /veh RGS16 (11746705_a_at) / RFU VCAN (11755009_s_at) / Fold change /veh VCAN (11755009_s_at) / RFU RHOB (11743442_s_at) / Fold change /veh RHOB (11743442_s_at) / RFU RGS16 (11720943_a_at) / Fold change /veh RGS16 (11720943_a_at) / RFU RGS16 (11720944_at) / Fold change /veh RGS16 (11720944_at) / RFU, VPS4B / Fold change vs veh, VPS4B / RFU, CREB1 / Fold change vs veh, CREB1 / RFU, DNAJC13 / Fold change vs veh, DNAJC13 / RFU, GNAQ / Fold change vs veh, GNAQ / RFU, CDK5R1 / Fold change vs veh, CDK5R1 / RFU, ZRANB3 / Fold change vs veh, ZRANB3 / RFU, CUL4A / Fold change vs veh, CUL4A / RFU, CCNY / Fold change vs veh, CCNY / RFU, UFL1 / Fold change vs veh, UFL1 / RFU, COG3 / Fold change vs veh, COG3 / RFU, DIAPH2 / Fold change vs veh, DIAPH2 / RFU, SKA2 / Fold change vs veh, SKA2 / RFU, AFF3 / Fold change vs veh, AFF3 / RFU, LMF1 / Fold change vs veh, LMF1 / RFU, IPO11 / Fold change vs veh, IPO11 / RFU, DFFB / Fold change vs veh, DFFB / RFU, FOXP1 / Fold change vs veh, FOXP1 / RFU, CARD8 / Fold change vs veh, CARD8 / RFU, STRN3 / Fold change vs veh, STRN3 / RFU, ADK / Fold change vs veh, ADK / RFU, RASSF2 / Fold change vs veh, RASSF2 / RFU, WIPF1 / Fold change vs veh, WIPF1 / RFU, LARP1B / Fold change vs veh, LARP1B / RFU, RASA1 / Fold change vs veh, RASA1 / RFU, RB1 / Fold change vs veh, RB1 / RFU, PPFIA1 / Fold change vs veh, PPFIA1 / RFU, MAT2A / Fold change vs veh, MAT2A / RFU, CCT5 / Fold change vs veh, CCT5 / RFU, WDR92 / Fold change vs veh, WDR92 / RFU, CUX1 / Fold change vs veh, CUX1 / RFU, TTC7A / Fold change vs veh, TTC7A / RFU, TMEM135 / Fold change vs veh, TMEM135 / RFU, DEPTOR / Fold change vs veh, DEPTOR / RFU, CPM / Fold change vs veh, CPM / RFU, DNAJB6 / Fold change vs veh, DNAJB6 / RFU, CACNA2D3 / Fold change vs veh, CACNA2D3 / RFU, DTX4 / Fold change vs veh, DTX4 / RFU, TFCP2 / Fold change vs veh, TFCP2 / RFU, GMCL1 /// GMCL1P1 / Fold change vs veh, GMCL1 /// GMCL1P1 / RFU, AEBP2 / Fold change vs veh, AEBP2 / RFU, SNHG1 /// SNORD22 /// SNORD25 /// SNORD26 /// SNORD27 /// SNORD28 /// SNORD29 /// SNORD31 / Fold change vs veh, SNHG1 /// SNORD22 /// SNORD25 /// SNORD26 /// SNORD27 /// SNORD28 /// SNORD29 /// SNORD31 / Fold change (Aza/veh), C12orf56 (ProbeSet 11735607_a_at) / Fold change (ACY-1035/veh), C12orf56 (ProbeSet 11735607_a_at) / Fold change (Aza/veh), FGFR1OP (ProbeSet 11751329_s_at) / Fold change (ACY-1035/veh), FGFR1OP (ProbeSet 11751329_s_at) / Fold change (Aza/veh), VPS36 (ProbeSet 11739960_a_at) / Fold change (ACY-1035/veh), VPS36 (ProbeSet 11739960_a_at) / RFU SYPL1 (11715823_x_at) / Fold change /veh SYPL1 (11715823_x_at) / RFU IGFBP7 (11715501_s_at) / Fold change /veh IGFBP7 (11715501_s_at) / RFU REEP3 (11722064_at) / Fold change /veh REEP3 (11722064_at) / RFU IGLL1 (11728026_x_at) / Fold change /veh IGLL1 (11728026_x_at): dose or concentration left out as unconfirmed
# Conditions: ProbeSet 11747889_x_at; LIST B
smiles,measurement,value
Nc1ccc(-c2cccs2)cc1NC(=O)c1ccc2c(c1)cc(C1CC1)n2CCN1CCOCC1 [ACY-1035],"Fold change vs veh, SH3YL1",0.99
